Here are results for 42 compounds from patent US7265130B2, “NPY Y5 antagonist” (Shionogi & Co., Ltd., priority 1999, dated 2007).

The target in experiment [1] is T1, human NPY Y5 receptor (Homo sapiens, UniProt Q15761).
T1 construct: expressed in transfected cells
T1 sequence (Q15761 1-445): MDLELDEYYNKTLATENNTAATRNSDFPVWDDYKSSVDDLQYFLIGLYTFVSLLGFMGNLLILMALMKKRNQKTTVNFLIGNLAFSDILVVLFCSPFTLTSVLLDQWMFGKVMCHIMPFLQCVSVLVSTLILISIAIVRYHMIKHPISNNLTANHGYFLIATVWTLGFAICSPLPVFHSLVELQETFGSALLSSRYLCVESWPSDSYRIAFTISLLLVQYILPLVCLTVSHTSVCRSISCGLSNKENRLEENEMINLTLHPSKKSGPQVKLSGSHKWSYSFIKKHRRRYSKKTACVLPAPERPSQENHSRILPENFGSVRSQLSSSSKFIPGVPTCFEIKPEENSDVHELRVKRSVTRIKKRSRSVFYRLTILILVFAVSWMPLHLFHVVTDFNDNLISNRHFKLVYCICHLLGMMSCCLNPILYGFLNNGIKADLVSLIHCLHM
As to the kind of experiment: Affinity for NPY Y5 receptor ([125I] peptide YY binding, CHO cell membranes). As to conditions: inhibition of specific [125I] peptide YY binding, membranes of CHO cells expressing NPY Y5 receptor. Summed up: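 IC50 is inhibition of specific [125I] peptide YY binding (60 pM final; non-specific defined by 200 nM peptide YY), read by gamma counting after filtration. Binding used stably transfected CHO-cell membranes with compound, 2 hours at 25° C, pH 7.4 HEPES-Hanks/0.1% BSA.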

Experiment [2] concerns the target T1, human NPY Y5 receptor. Put plainly: cAMP production inhibitory activity in CHO cells. The class given is cell-based. The settings on record: against 50 nM NPY inhibition of forskolin stimulated cAMP, CHO cells expressing human NPY Y5 receptor. Summed up:
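Supernatant cAMP quantified by EIA after HCl stop, following 30 min stimulation with 10 μM forskolin and 50 nM NPY. Compound was added 5 min before stimulation to human NPY Y5-expressing CHO cells pretreated 20 min at 37 °C with 2.5 mM isobutylmethylxanthine.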
(Changes in cAMP serve as a functional read-out for many G protein-coupled receptors.)

Usually IC50 stands for the concentration at which inhibition is half-maximal. In the case of `CC(C)(C)S(=O)(=O)NC1CCC(C(=O)Nc2ccc(-c3ccco3)cc2)CC1` (stereo not drawn) [Ia-177], the IC50 at human NPY Y5 receptor [1] turned out to be 0.49 nM; at human NPY Y5 receptor [2], 7.5 nM.

In the case of `CC(C)(C)S(=O)(=O)NC1CCC(C(=O)Nc2ccc(-c3ccno3)cc2)CC1` (stereo not drawn) [Ia-179], the IC50 on human NPY Y5 receptor [1] turned out to be 0.89 nM; at human NPY Y5 receptor [2] it was 19 nM.

For `CC(C)NS(=O)(=O)c1ccc(NC(=O)C2CCC(NS(=O)(=O)C(C)(C)C)CC2)cc1` (stereo not drawn) [Ia-180], the figures for the IC50 at human NPY Y5 receptor [1] and against human NPY Y5 receptor [2] were 1.9 nM and 11 nM, respectively.

In the case of `CC(C)NS(=O)(=O)c1cccc(NC(=O)C2CCC(NS(=O)(=O)C(C)(C)C)CC2)c1` (stereo not drawn) [Ia-181], the half-inhibitory concentration (IC50) at human NPY Y5 receptor [1] amounted to 7.7 nM; against human NPY Y5 receptor [2] it was 25 nM.

For the compound `CC(C)(C)S(=O)(=O)NC1CCC(C(=O)Nc2cccc(OCC3CC3)c2)CC1` (stereo not drawn) [Ia-182], the IC50 at human NPY Y5 receptor [1] worked out at 0.24 nM; at human NPY Y5 receptor [2] it was 2.1 nM.

For the compound `CC(C)(C)S(=O)(=O)NC1CCC(C(=O)Nc2ccc(N3CCCC3=O)cc2)CC1` (stereo not drawn) [Ia-183], the IC50 at human NPY Y5 receptor [1] was 1.9 nM; against human NPY Y5 receptor [2] it was 7.8 nM.

In the case of `CC(C)(C)S(=O)(=O)NC1CCC(C(=O)Nc2ccc(S(=O)(=O)N3CCCCC3)cc2)CC1` (stereo not drawn) [Ia-185], the 50% inhibitory concentration (IC50) on human NPY Y5 receptor [1] stood at 0.94 nM; on human NPY Y5 receptor [2] it was 4.4 nM.

With `CC(C)(C)S(=O)(=O)NC1CCC(C(=O)Nc2cccc(S(=O)(=O)N3CCCCC3)c2)CC1` (stereo not drawn) [Ia-186], the IC50 worked out at 0.93 nM at human NPY Y5 receptor [1] and 12 nM against human NPY Y5 receptor [2].

`CC(C)(C)NC(=O)c1ccc(NC(=O)C2CCC(NS(=O)(=O)C(C)(C)C)CC2)cc1` (stereo not drawn) [Ia-187]: the IC50 at human NPY Y5 receptor [1] was determined as 1.9 nM; against human NPY Y5 receptor [2], 60 nM.

Turning to `CCC(C)NC(=O)c1ccc(NC(=O)C2CCC(NS(=O)(=O)C(C)(C)C)CC2)cc1` (stereo not drawn) [Ia-188], the figures for the IC50 at human NPY Y5 receptor [1] and against human NPY Y5 receptor [2] were 0.75 nM and 28 nM, respectively.

`CC(C)(C)S(=O)(=O)NC1CCC(C(=O)Nc2cccc(NC(=O)C3CCCCC3)c2)CC1` (stereo not drawn) [Ia-189]: the IC50 at human NPY Y5 receptor [1] is 3.5 nM; against human NPY Y5 receptor [2], 95 nM.

In the case of `CC(C)(C)S(=O)(=O)NC1CCC(C(=O)Nc2ccc(NC(=O)C3CCCCC3)cc2)CC1` (stereo not drawn) [Ia-190], the IC50 amounted to 0.34 nM at human NPY Y5 receptor [1] and 1000 nM at human NPY Y5 receptor [2].

In the case of `CC(C)NC(=O)c1ccc(NC(=O)c2ccc(NS(=O)(=O)C(C)(C)C)cc2)cc1` [Ia-191], the IC50 on human NPY Y5 receptor [1] was found to be 0.49 nM; on human NPY Y5 receptor [2], 220 nM.

`CC(C)NC(=O)c1cccc(NC(=O)C2CCC(NS(=O)(=O)C(C)C)CC2)c1` (stereo not drawn) [Ia-192]: the values for the IC50 on human NPY Y5 receptor [1] and against human NPY Y5 receptor [2] were 5.9 nM and 200 nM, respectively.

For `CC(C)NC(=O)c1ccc(NC(=O)C2CCC(NS(=O)(=O)C(C)C)CC2)cc1` (stereo not drawn) [Ia-193], the IC50 at human NPY Y5 receptor [1] was 1.4 nM; against human NPY Y5 receptor [2], 43 nM.

Turning to `CC(C)S(=O)(=O)NC1CCC(C(=O)Nc2ccc(-c3ccco3)cc2)CC1` (stereo not drawn) [Ia-194], the figures for the IC50 at human NPY Y5 receptor [1] and on human NPY Y5 receptor [2] were 0.22 nM and 8.1 nM, respectively.

`CC(C)(C)S(=O)(=O)NC1CCC(C(=O)Nc2ccc(-c3cnco3)cc2)CC1` (stereo not drawn) [Ia-195]: the IC50 at human NPY Y5 receptor [1] worked out at 1.4 nM; against human NPY Y5 receptor [2], 31 nM.

For the compound `CC(C)S(=O)(=O)NC1CCC(C(=O)Nc2ccc(OCC3CC3)cc2)CC1` (stereo not drawn) [Ia-196], the IC50 worked out at 0.39 nM at human NPY Y5 receptor [1] and 1.3 nM against human NPY Y5 receptor [2].

On to `CC(C)S(=O)(=O)NC1CCC(C(=O)Nc2cccc(OCC3CC3)c2)CC1` (stereo not drawn) [Ia-197], for which the half-maximal inhibitory concentration (IC50) came out at 0.44 nM at human NPY Y5 receptor [1] and 2.5 nM at human NPY Y5 receptor [2].

Consider `CC(C)S(=O)(=O)NC1CCC(C(=O)Nc2ccc(OC3CCCC3)cc2)CC1` (stereo not drawn) [Ia-198], for which the IC50 was 0.23 nM on human NPY Y5 receptor [1] and 2.6 nM against human NPY Y5 receptor [2].

As to `Cc1cc(C(=O)NC(C)C)ccc1NC(=O)C1CCC(NS(=O)(=O)C(C)(C)C)CC1` (stereo not drawn) [Ia-201], the figures for the IC50 at human NPY Y5 receptor [1] and on human NPY Y5 receptor [2] were 3.1 nM and 74 nM, respectively.

As for `CC(C)(C)S(=O)(=O)NC1CCC(C(=O)Nc2ccc(-c3cccs3)cc2)CC1` (stereo not drawn) [Ia-202], the IC50 at human NPY Y5 receptor [1] came to 0.37 nM; against human NPY Y5 receptor [2] it was 3.4 nM.

On to `CC(C)(C)S(=O)(=O)NC1CCC(C(=O)Nc2ccc(C3CCCCC3)cc2)CC1` (stereo not drawn) [Ia-203], for which the IC50 at human NPY Y5 receptor [1] amounted to 0.2 nM; on human NPY Y5 receptor [2], 2.6 nM.

In the case of `CC(C)S(=O)(=O)NC1CCC(C(=O)Nc2ccc(-c3ncco3)cc2)CC1` (stereo not drawn) [Ia-204], the IC50 on human NPY Y5 receptor [1] turned out to be 1 nM; at human NPY Y5 receptor [2], 6.3 nM.

`CC(C)(C)S(=O)(=O)NC1CCC(C(=O)Nc2ccc(OC3CCOC3)cc2)CC1` (stereo not drawn) [Ia-205]: the values for the IC50 at human NPY Y5 receptor [1] and against human NPY Y5 receptor [2] were 2.4 nM and 99 nM, respectively.

Take `CC(C)(C)S(=O)(=O)NC1CCC(C(=O)Nc2ccc(OCC3CCCCO3)cc2)CC1` (stereo not drawn) [Ia-206]: the IC50 stood at 1.9 nM at human NPY Y5 receptor [1] and 460 nM against human NPY Y5 receptor [2].

Regarding `CC(C)(C)S(=O)(=O)NC1CCC(C(=O)Nc2cccc(N3CCCS3(=O)=O)c2)CC1` (stereo not drawn) [Ia-207], the figures for the IC50 on human NPY Y5 receptor [1] and against human NPY Y5 receptor [2] were 0.55 nM and 5.9 nM, respectively.

As to `CC(C)(C)S(=O)(=O)NC1CCC(C(=O)Nc2ccc(N3CCCS3(=O)=O)cc2)CC1` (stereo not drawn) [Ia-208], the IC50 was 1.2 nM on human NPY Y5 receptor [1] and 9.7 nM at human NPY Y5 receptor [2].

As to `CC(C)(C)S(=O)(=O)Nc1ccc(C(=O)Nc2ccc(-c3ccco3)cc2)cc1` [Ia-210], the IC50 at human NPY Y5 receptor [1] was determined as 2.8 nM; against human NPY Y5 receptor [2], 99 nM.

In the case of `CC(C)(C)S(=O)(=O)Nc1ccc(C(=O)Nc2ccc(-c3ncco3)cc2)cc1` [Ia-211], the IC50 is 4.8 nM on human NPY Y5 receptor [1] and 240 nM against human NPY Y5 receptor [2].

Regarding `CC(C)(C)S(=O)(=O)Nc1ccc(C(=O)Nc2ccc(OC3CCCC3)cc2)cc1` [Ia-212], the IC50 on human NPY Y5 receptor [1] was found to be 0.52 nM; on human NPY Y5 receptor [2] it was 2.6 nM.

With `CC(C)(C)S(=O)(=O)Nc1ccc(C(=O)Nc2ccc(-c3cccs3)cc2)cc1` [Ia-213], the IC50 is 0.91 nM at human NPY Y5 receptor [1] and 28 nM against human NPY Y5 receptor [2].

Consider `CC(C)(C)S(=O)(=O)NC1CCN(C(=O)Nc2ccc(C(F)(F)F)cc2)CC1` [Ia-219], for which the IC50 came out at 2.5 nM at human NPY Y5 receptor [1] and 28 nM against human NPY Y5 receptor [2].

`CC(C)(C)S(=O)(=O)NC1CCN(C(=O)Nc2ccc(C3CCCCC3)cc2)CC1` [Ia-221]: the IC50 was 0.47 nM at human NPY Y5 receptor [1] and 1.5 nM at human NPY Y5 receptor [2].

Turning to `CC(C)S(=O)(=O)NC1CCN(C(=O)Nc2ccc(C(F)(F)F)cc2)CC1` [Ia-222], the values for the IC50 at human NPY Y5 receptor [1] and on human NPY Y5 receptor [2] were 3.7 nM and 18 nM, respectively.

Turning to `CC(C)S(=O)(=O)NC1CCN(C(=O)Nc2ccc(C3CCCCC3)cc2)CC1` [Ia-224], the IC50 at human NPY Y5 receptor [1] worked out at 0.1 nM; on human NPY Y5 receptor [2], 1.2 nM.

Regarding `CC(C)(C)S(=O)(=O)NC1CCN(C(=O)Nc2ccc(OC3CCOCC3)cc2)CC1` [Ia-225], the figures for the IC50 on human NPY Y5 receptor [1] and on human NPY Y5 receptor [2] were 3.4 nM and 20 nM, respectively.

Turning to `CC(C)S(=O)(=O)NCCCCC(=O)Nc1ccc2c(c1)C(=O)N(c1ccccc1)C2=O` [Ia-226], the IC50 turned out to be 0.37 nM at human NPY Y5 receptor [1] and 21 nM against human NPY Y5 receptor [2].

For `CC(C)S(=O)(=O)NC1CCN(C(=O)Nc2ccc(OC3CCOCC3)cc2)CC1` [Ia-237], the IC50 at human NPY Y5 receptor [1] is 1.1 nM; against human NPY Y5 receptor [2] it was 15 nM.

Consider `CC(C)(C)S(=O)(=O)NC1CCC(C(=O)Nc2cccc(C3CCOCC3)c2)CC1` (stereo not drawn) [Ia-246], for which the figures for the IC50 at human NPY Y5 receptor [1] and at human NPY Y5 receptor [2] were 0.26 nM and 20 nM, respectively.

For the compound `CC(C)(C)S(=O)(=O)NC1CCC(C(=O)Nc2ccc(C3(O)CCOCC3)cc2)CC1` (stereo not drawn) [Ia-247], the results for the IC50 on human NPY Y5 receptor [1] and against human NPY Y5 receptor [2] were 0.79 nM and 31 nM, respectively.

Take `CC(C)(C)S(=O)(=O)NC1CCC(C(=O)Nc2ccc(C3CCOCC3)cc2)CC1` (stereo not drawn) [Ia-248]: the IC50 turned out to be 0.27 nM at human NPY Y5 receptor [1] and 17 nM at human NPY Y5 receptor [2].
